The numbers were not newly measured in patent US20150361500A1, “BIOMARKERS FOR DIAGNOSIS AND TREATMENT OF ACNE VULGARIS” (DermTech International, priority 2013, published 2015), which cites them from elsewhere.

This series relates to acne.

For `O=C(OOC(=O)c1ccccc1)c1ccccc1` [Benzoyl peroxide], the tolerability result (2.5% concentration compared with 5 and 10%) was “usually better tolerated”. The “effectiveness in acne treatment” value (5 and 10% concentrations compared with 2.5%) is listed as “not significantly more effective”. In addition, the skin reactions entry (gel or cream applied to affected areas) is “commonly causes initial dryness and sometimes irritation”.
